According to patent US5932742A, “Arylsulfonylimidazolone derivatives as an antitumor agent” (priority 1996, dated 1999):
Converted amounts (≈) assume the structure as drawn. Structures can show the parent of a compound that is named as a salt. Where two headings read alike, the source gives them in different places.

Tests used:
Type in all cases: cell-based
[1] = tested on: KB (ATCC CCL 17): human epidermoid carcinoma; assay: In vitro antitumor activity, MTT assay, KB; settings: MTT, 48 hrs; for IC50: Homo sapiens, read-out: IC50 (KB)
Protocol: (§1) In vitro antitumor activity against human tumor cell lines
(§2) In vitro antitumor activity of the compounds according to the present invention was determined by MTT assay method against the following human tumor cell lines:
KB (ATCC CCL 17): human epidermoid carcinoma
(§3) In this test, the known antineoplastic compounds, Doxorubicin and Sulofenur, were used as the comparative agents.
(§4) Each of the tumor cells was cultured in RPMI 1640 media containing 10% fetal bovine serum, 100 IU/ml penicillin and 100 μg/ml streptomycin, and then periodically subcultured once or twice per week in trypsin-EDTA solution containing 0.05% trypsin and 0.53mM EDTA.4Na. The human tumor cell line thus obtained (10,000cells/100 μl) was plated on 96-well microplate and then cultured for 24 hrs at 37° C. in a 5% CO2 incubator. Test compound was dissolved in DMSO, sterilized with 0.22 μm PVDF filter, and then serially 5-fold diluted from 40 μg/ml to 0.00256μg/ml. 100 μl of the sample solution thus prepared and RPMI 1640 medium only (control group) were added to 96-well microplate containing the human tumor cell, respectively. The final concentration of the test compound was in the range from 20 μg/ml to 0.00128 μg/ml and the concentration of DMSO was below 0.5%. The cells were cultured for 48 hrs at 37° C. in a 5% CO2 incubator. MTT(3-(4,5-Dimethylthiazole-2-yl)-e,5-diphenyltetrazoliumbromide) was dissolved in physiological saline in a concentration of 2 mg/ml and the resulting solution was filtered through 0.22 μm PTFE filter. 25 μl of MTT solution thus prepared was added to each well of 96-well microplate and incubated for additional 4 hrs at 37° C. in a 5% CO2 incubator. Then, the content of microplate was centrifuged at 1000 rpm for 10 min, and supernatant was removed by flicking. The formazan formed from MTT by mitochondrial succinate dehydrogenase was dissolved in 100 μl of DMSO. The absorbance of each well was measured at 540nm by micro ELISA reader and the cytotoxicity was calculated by dividing the absorbance of test group by the absorbance of control group. After the calculated cytotoxicity (%) was plotted, the concentration of 50% tumor growth inhibition concentration (IC50) was estimated by Linear-Regression method.

[2] = tested on: SK-OV-3 (ATCC HTB 77): human ovarian adenocarcinoma; assay: In vitro antitumor activity, MTT assay, SK-OV-3; settings: for IC50 (SK-OV-3): Table 1, 48 hrs; for IC50: Homo sapiens
Protocol: as §1, §2
SK-OV-3 (ATCC HTB 77): human ovarian adenocarcinoma
as §3, §4

[3] = tested on: Colo205 (ATCC CCL 222): human colon adenocarcinoma; assay: In vitro antitumor activity, MTT assay, Colo205; settings: for IC50 (Colo205): Table 1, 48 hrs; for IC50: Homo sapiens
Protocol: as §1, §2
Colo205 (ATCC CCL 222): human colon adenocarcinoma
as §3, §4

[4] = tested on: A549 (ATCC CCL 185): human lung carcinoma; assay: In vitro antitumor activity, MTT assay, A549; settings: for IC50 (A549): Table 1, 48 hrs; for IC50: Homo sapiens, A549, 48 h
Protocol: as §1, §2
A549 (ATCC CCL 185): human lung carcinoma
as §3, §4

[5] = tested on: K562 (ATCC CCL 243): human chronic myelogenous leukemia; assay: In vitro antitumor activity, MTT assay, K562; settings: Homo sapiens, K562, 48 h
Protocol: as §1, §2
K562 (ATCC CCL 243): human chronic myelogenous leukemia
as §3, §4

[6] = COLO 205, Table 2, 48 hrs, read-out: IC50 (Colo205)
[7] = COLO 205, Table 1, 48 hrs, read-out: IC50 (Colo205)
[8] = COLO 205, Table 5, 48 hrs, read-out: IC50 (Colo205)
[9] = COLO 205, Table 3, 48 hrs, read-out: IC50 (Col205)

O=C(c1cccs1)N1CCc2cc(S(=O)(=O)n3cc(-c4ccccc4)[nH]c3=O)ccc21 [Example 17, 4-phenyl-1-(N-thiophenoylindoline-5-sulfonyl)-2-imidazolone]
IC50 (KB) ([1]; Table 1): 0.008 mg/L (≈ 0.0177 µM) | IC50 (SK-OV-3) [2]: 0.729 mg/L (≈ 1.61 µM) | IC50 (Colo205) [3]: 0.386 mg/L (≈ 0.855 µM) | IC50 (A549) [4]: 0.046 mg/L (≈ 0.102 µM)

CC(C)NCC(=O)N1CCc2cc(S(=O)(=O)n3cc(-c4ccccc4)[nH]c3=O)ccc21 [Example 24, 4-phenyl-1-(N-isopropylaminoacetylindoline-5-sulfonyl)-2-imidazolone.HCl]
IC50 ([1]; Table 2): 0.879 mg/L | IC50 ([2]; SK-OV-3, Table 2, 48 hrs): 8.77 mg/L | IC50 [3, 6]: 3.35 mg/L | IC50 ([4]; Table 2): 3.48 mg/L

CCCNC(=O)N1c2ccc(S(=O)(=O)n3cc(-c4ccccc4)[nH]c3=O)cc2CC1C (stereo not drawn) [Example 5, 4-phenyl-1-(N-propylcarbamoyl-2-methylindoline-5-sulfonyl)-2-imidazolone]
IC50 ([1]; Table 1): 0.105 mg/L (≈ 0.238 µM) | IC50 ([2]; SK-OV-3, Table 1, 48 hrs): 0.146 mg/L (≈ 0.331 µM) | IC50 [3, 7]: 0.519 mg/L (≈ 1.18 µM) | IC50 ([4]; Table 1): 0.09 mg/L (≈ 0.204 µM)

CC1Cc2cc(S(=O)(=O)n3cc(-c4ccccc4)[nH]c3=O)ccc2N1C(=O)CNC(C)(C)C (stereo not drawn) [Example 27, 4-phenyl-1-(N-t-butylaminoacetyl-2-methylindoline-5-sulfonyl)-2-imidazolone.HCl]
IC50 ([1]; Table 2): 0.317 mg/L | IC50 ([2]; SK-OV-3, Table 2, 48 hrs): 2.44 mg/L | IC50 [3, 6]: 5.68 mg/L | IC50 ([4]; Table 2): 1.45 mg/L

CCOC(=O)N1CCc2cc(S(=O)(=O)n3cc(-c4ccccc4)[nH]c3=O)ccc21 [Example 1, 4-phenyl-1-(N-ethoxycarbonylindoline-5-sulfonyl)-2-imidazolone]
IC50 ([1]; Table 1): 0.017 mg/L (≈ 0.0411 µM) | IC50 ([2]; SK-OV-3, Table 1, 48 hrs): 10.1 mg/L (≈ 24.3 µM) | IC50 [3, 7]: 0.906 mg/L (≈ 2.19 µM) | IC50 ([4]; Table 1): 0.374 mg/L (≈ 0.905 µM)

O=C(c1ccc([N+](=O)[O-])cc1)N1CCc2cc(S(=O)(=O)n3cc(-c4ccccc4)[nH]c3=O)ccc21 [Example 9, 4-phenyl-1-[N-(4-nitrobenzoyl)indoline-5-sulfonyl]-2-imidazolone]
IC50 ([1]; Table 1): 0.045 mg/L (≈ 0.0917 µM) | IC50 ([2]; SK-OV-3, Table 1, 48 hrs): 0.106 mg/L (≈ 0.216 µM) | IC50 [3, 7]: 0.651 mg/L (≈ 1.33 µM) | IC50 ([4]; Table 1): 0.528 mg/L (≈ 1.08 µM)

O=C(c1ccco1)N1CCc2cc(S(=O)(=O)n3cc(-c4ccccc4)[nH]c3=O)ccc21 [Example 16, 4-phenyl-1-(N-furanoylindoline-5-sulfonyl)-2-imidazolone]
IC50 (KB) ([1]; Table 1): 0.011 mg/L (≈ 0.0253 µM) | IC50 (SK-OV-3) [2]: 2.074 mg/L (≈ 4.76 µM) | IC50 (Colo205) [3]: 0.460 mg/L (≈ 1.06 µM) | IC50 (A549) [4]: 0.065 mg/L (≈ 0.149 µM)

CC(C)NCC(=O)N1c2ccc(S(=O)(=O)n3cc(-c4ccccc4)[nH]c3=O)cc2CC1C (stereo not drawn) [Example 23, 4-phenyl-1-(N-isopropylaminoacetyl-2-methylindoline-5-sulfonyl)-2-imidazolone.HCl]
IC50 ([1]; Table 2): 0.429 mg/L | IC50 ([2]; SK-OV-3, Table 2, 48 hrs): 4.03 mg/L | IC50 [3, 6]: 3.45 mg/L | IC50 ([4]; Table 2): 1.14 mg/L

Nc1ccc(C(=O)N2CCc3cc(S(=O)(=O)n4cc(-c5ccccc5)[nH]c4=O)ccc32)cc1 [Example 10, 4-phenyl-1-[N-(4-aminobenzoyl)indoline-5-sulfonyl]-2-imidazolone.HCl]
IC50 ([1]; Table 1): 0.0001 mg/L | IC50 ([2]; SK-OV-3, Table 1, 48 hrs): 0.529 mg/L | IC50 [3, 7]: 0.334 mg/L | IC50 ([4]; Table 1): 0.23 mg/L

CCNC(=O)N1c2ccc(S(=O)(=O)n3cc(-c4ccccc4)[nH]c3=O)cc2CC1C (stereo not drawn) [Example 3, 4-phenyl-1-(N-ethylcarbamoyl-2-methylindoline-5-sulfonyl)-2-imidazolone]
IC50 ([1]; Table 1): 0.006 mg/L (≈ 0.0141 µM) | IC50 ([2]; SK-OV-3, Table 1, 48 hrs): 0.509 mg/L (≈ 1.19 µM) | IC50 [3, 7]: 0.265 mg/L (≈ 0.621 µM) | IC50 ([4]; Table 1): 0.111 mg/L (≈ 0.26 µM)

CC1Cc2cc(S(=O)(=O)n3cc(-c4ccccc4)[nH]c3=O)ccc2N1C(=O)c1ccc([N+](=O)[O-])cc1 (stereo not drawn) [Example 11, 4-phenyl-1-[N-(4-nitrobenzoyl)-2-methylindoline-5-sulfonyl]-2-imidazolone]
IC50 ([1]; Table 1): 0.64 mg/L (≈ 1.27 µM) | IC50 ([2]; SK-OV-3, Table 1, 48 hrs): 0.453 mg/L (≈ 0.898 µM) | IC50 [3, 7]: 1.11 mg/L (≈ 2.2 µM) | IC50 ([4]; Table 1): 0.234 mg/L (≈ 0.464 µM)

CC(C)NC(=O)N1c2ccc(S(=O)(=O)n3cc(-c4ccccc4)[nH]c3=O)cc2CC1C (stereo not drawn) [Example 7, 4-phenyl-1-(N-isopropylcarbamoyl-2-methylindoline-5-sulfonyl)-2-imidazolone]
IC50 ([1]; Table 1): 0.162 mg/L (≈ 0.368 µM) | IC50 ([2]; SK-OV-3, Table 1, 48 hrs): 1.07 mg/L (≈ 2.43 µM) | IC50 [3, 7]: 0.102 mg/L (≈ 0.232 µM) | IC50 ([4]; Table 1): 0.105 mg/L (≈ 0.238 µM)

C=CCNCC(=O)N1c2ccc(S(=O)(=O)n3cc(-c4ccccc4)[nH]c3=O)cc2CC1C (stereo not drawn) [Example 28, 4-phenyl-1-(N-allylaminoacetyl-2-methylindoline-5-sulfonyl)-2-imidazolone.HCl]
IC50 ([1]; Table 2): 1.12 mg/L | IC50 ([2]; SK-OV-3, Table 2, 48 hrs): 1.52 mg/L | IC50 [3, 6]: 1.05 mg/L | IC50 ([4]; Table 2): 0.604 mg/L

CCNC(=O)N1CCc2cc(S(=O)(=O)n3cc(-c4ccccc4)[nH]c3=O)ccc21 [Example 2, 4-phenyl-1-(N-ethylcarbamoylindoline-5-sulfonyl)-2-imidazolone]
IC50 ([1]; Table 1): 16.7 mg/L (≈ 40.4 µM) | IC50 ([2]; SK-OV-3, Table 1, 48 hrs): 0.537 mg/L (≈ 1.3 µM) | IC50 ([4]; Table 1): 0.325 mg/L (≈ 0.788 µM)

CC(C)CNCC(=O)N1CCc2cc(S(=O)(=O)n3cc(-c4ccccc4)[nH]c3=O)ccc21 [Example 26, 4-phenyl-1-(N-isobutylaminoacetylindoline-5-sulfonyl)-2-imidazolone.HCl]
IC50 ([1]; Table 2): 1.99 mg/L | IC50 ([2]; SK-OV-3, Table 2, 48 hrs): 10.1 mg/L | IC50 [3, 6]: 9.09 mg/L | IC50 ([4]; Table 2): 5.47 mg/L

NCC(=O)Nc1ccc(C(=O)N2CCc3cc(S(=O)(=O)N4C[C@H](c5ccccc5)NC4=O)ccc32)cc1 [Example 67, (S)-(+)-4-phenyl-1-[N-{4-(2-aminoacetyl)aminobenzoyl}indoline-5-sulfonyl]-4,5-dihydro-2-imidazolone.HCl]
IC50 ([5]; Table 5, read-out: IC50 (K562)): 1.32 mg/L | IC50 ([2]; SK-OV-3, Table 5, 48 hrs): 0.855 mg/L | IC50 [3, 8]: 0.971 mg/L | IC50 ([4]; Table 5): 0.254 mg/L

CCNC(=S)N1CCc2cc(S(=O)(=O)N3CC(c4ccccc4)NC3=O)ccc21 (stereo not drawn) [Example 39, 4-phenyl-1-(N-ethylthiocarbamoylindoline-5-sulfonyl)-4,5-dihydro-2-imidazolone]
IC50 ([5]; Table 3, read-out: IC50 (K562)): 0.567 mg/L (≈ 1.32 µM) | IC50 ([2]; SK-OV-3, Table 3, 48 hrs): 3.17 mg/L (≈ 7.36 µM) | IC50 [3, 9]: 9.11 mg/L (≈ 21.2 µM) | IC50 ([4]; Table 3): 0.438 mg/L (≈ 1.02 µM)

O=C1NC(c2ccccc2)CN1S(=O)(=O)c1ccc2c(c1)CCN2C(=S)Nc1ccccc1 (stereo not drawn) [Example 42, 4-phenyl-1-(N-phenylthiocarbamoylindoline-5-sulfonyl)-4,5-dihydro-2-imidazolone]
IC50 ([5]; Table 3, read-out: IC50 (K562)): 0.017 mg/L (≈ 0.0355 µM) | IC50 ([2]; SK-OV-3, Table 3, 48 hrs): 10.5 mg/L (≈ 21.9 µM) | IC50 [3, 9]: 2.14 mg/L (≈ 4.46 µM) | IC50 ([4]; Table 3): 0.095 mg/L (≈ 0.198 µM)

C[C@H](N)C(=O)Nc1ccc(C(=O)N2CCc3cc(S(=O)(=O)N4C[C@H](c5ccccc5)NC4=O)ccc32)cc1 [Example 66, (S)-(+)-4-phenyl-1-[N-{4-(2-aminopropanoyl)aminobenzoyl}indoline-5-sulfonyl]-4,5-dihydro-2-imidazolone.HCl]
IC50 ([5]; Table 5, read-out: IC50 (K562)): 3.57 mg/L | IC50 ([2]; SK-OV-3, Table 5, 48 hrs): 0.259 mg/L | IC50 [3, 8]: 0.77 mg/L | IC50 ([4]; Table 5): 0.112 mg/L
